From patent publication US20080058293A1, “Quinoline Derivates and Their Use in Therapy” (priority 2003, published 2008) come the findings set out here.

Where a name gives a salt, the structure may show the parent alone.

This test addresses T1, P2X7 receptor (Homo sapiens, UniProt Q99572).
T1 construct: 200 μl of a suspension of THP-1 cells; endogenous in cells; host or cells: THP-1 cells
T1 sequence (Q99572 1-595): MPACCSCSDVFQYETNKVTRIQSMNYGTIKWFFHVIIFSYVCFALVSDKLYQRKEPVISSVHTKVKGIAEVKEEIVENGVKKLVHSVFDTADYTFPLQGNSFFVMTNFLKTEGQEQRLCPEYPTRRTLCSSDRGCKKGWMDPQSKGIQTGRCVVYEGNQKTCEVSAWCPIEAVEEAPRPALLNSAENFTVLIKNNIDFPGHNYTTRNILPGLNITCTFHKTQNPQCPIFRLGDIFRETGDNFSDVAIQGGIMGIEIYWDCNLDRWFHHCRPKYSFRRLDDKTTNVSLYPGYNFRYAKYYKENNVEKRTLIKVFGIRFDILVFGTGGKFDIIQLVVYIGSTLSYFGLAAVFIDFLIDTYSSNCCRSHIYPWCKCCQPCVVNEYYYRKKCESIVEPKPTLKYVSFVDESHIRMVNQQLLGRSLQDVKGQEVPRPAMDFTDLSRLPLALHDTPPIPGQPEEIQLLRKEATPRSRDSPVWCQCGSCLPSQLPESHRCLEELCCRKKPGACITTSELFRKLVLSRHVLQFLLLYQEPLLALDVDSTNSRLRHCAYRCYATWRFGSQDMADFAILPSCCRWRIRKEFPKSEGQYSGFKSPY
Kind of test: bbATP-induced ethidium bromide fluorescence in THP-1 cells, P2X7 receptor antagonist activity. The following applies: negative logarithm of concentration reducing bbATP agonist activity by 50%, 10^-5M bbATP, 37° C. one hour. It is filed as cell-based. An excerpt:
Certain compounds such as benzoylbenzoyl adenosine triphosphate (bbATP) are known to be agonists of the P2X7 receptor, effecting the formation of pores in the plasma membrane (Drug Development Research (1996), 37(3), p. 126). Consequently, when the receptor is activated using bbATP in the presence of ethidium bromide (a fluorescent DNA probe), an increase in the fluorescence of intracellular DNA-bound ethidium bromide is observed. The increase in fluorescence can be used as a measure of P2X7 receptor activation and therefore to quantify the effect of a compound on the P2X7 receptor.
In this manner, each of the title compounds of the Examples was tested for antagonist activity at the P2X7 receptor. Thus, the test was performed in 96-well flat bottomed microtitre plates, the wells being filled with 250 μl of test solution comprising 200 μl of a suspension of THP-1 cells (2.5×10^6 cells/ml) containing 10^−4M ethidium bromide, 25 μl of a high potassium buffer solution containing 10^−5M bbATP, and 25 μl of the high potassium buffer solution containing 3×10^−5M test compound. The plate was covered with a plastics sheet and incubated at 37° C. for one hour. The plate was then read in a Perkin-Elmer fluorescent plate reader, excitation 520 nm, emission 595 nm, slit widths: Ex 15 nm, Em 20 nm. For the purposes of comparison, bbATP (a P2X7 receptor agonist) and pyridoxal 5-phosphate (a P2X7 receptor antagonist) were used separately in the test as controls.
Take `Cc1ccc2c(C(=O)NC[C@H](C)c3ccccc3)c(Cl)ccc2n1` [Example 1, 6-Chloro-2-methyl-N-[(2R)-2-phenylpropyl]-5-quinolinecarboxamide, hydrochloride]: the IC50 (commonly the concentration at which inhibition is half-maximal) is 316 nM.
The figure for `CNCCCN(C)c1ccc2c(NC(=O)C[C@@H](C)c3ccccc3)c(Cl)ccc2n1` [Example 3, (βR)-N-[6-Chloro-2-[methyl[3-(methylamino)propyl]amino]-5-quinolinyl]-β-methyl-benzenepropanamide, ditrifluoroacetate] is 31.6 nM; for `O=C(CCc1ccccc1Cl)Nc1c(Cl)ccc2nc(N3CCC(C(=O)O)CC3)ccc12` [Example 20, 1-[6-Chloro-5-[[3-(2-chlorophenyl)-1-oxopropyl]amino]-2-quinolinyl]-4-piperidinecarboxylic acid, potassium salt] it is 794 nM.
